# Experimental data as given in patent US6281250A, “Retinyl ethers, derivatives and analogues and inhibition of breast carcinogenesis” (Southern Research Institute, priority 1999, dated 2001).
# Entries after “also recorded” stand apart in the source; their conditions may differ. Like-named read-outs stand apart in the source and are kept apart here.
# Assays:
# [1] = test system: serum retinol-binding protein (RBP); assay: Binding to serum retinol-binding protein (RBP): inhibition of [3H]retinol binding; conditions: % of that of retinol
# [2] = Toxicity observations in rats receiving retinoids in feed; type: in vivo, rat (Sprague-Dawley); conditions: administered in feed, listed as RTMBE
# Description: (§1) Retinoid diet mixtures were stored at 4° C. […] The animals were palpated for mammary tumors 2×/week. […] Also, five rats/group had complete necropsies performed.
# [3] = Tissue concentrations resulting from gavage of rats with RTMBE; type: in vivo, rat (female Sprague-Dawley); conditions: for concentration at 168 h / concentration at 336 h: rat, po, 14 mg/day by gavage; for concentration at 168 h: 7 days; for concentration at 336 h: 14 days
# Description: To plasma samples (50-200 μl), ten volumes of acetonitrile were added, and the preparations were centrifuged. The supernatants were evaporated to dryness under nitrogen and reconstituted in the mobile phase (see below). Tissues were homogenized in four volumes of water at 0° C., and each homogenate was extracted with acetonitrile (50 mL/g tissue). From this point, handling of plasma and tissue samples was identical. Portions (25-50 μl) of the reconstituted samples were analyzed by reverse-phase HPLC. The chromatographic system was composed of a Beckman solvent delivery module 110B, analogue interface module 406, programable detector module 166, and autosampler 507. The column was a Hypersil ODS, 5-μ, 250×4.6 mm. Elution was accomplished with a solvent of methanol:0.2%acetic acid (93.5:6.5, v/v) with the final solution containing 0.02% triethylamine. The flow rate was 1 mL/min, with detection at 340 nm.
# The concentrations of RTMBE in the serum, mammary gland, and liver of rats, as well as the levels of RP in the liver, were determined after administration of RTMBE by gavage during 14 days (Table 9). […] In order to investigate further the accumulation of retinyl benzyl ethers in mammary tissue, RTMBE, the 2,5-dimethoxybenzyl ether (3b), and the 4-methoxybenzyl (3e) ether were administered intravenously (via a tail vein) at 5 mg/kg to female Sprague-Dawley rats (3 with each retinoid). Acetonitrile extracts of plasma and mammary tissue were analyzed by HPLC. The ratios of mammary tissue-to-plasma concentrations of RTMBE, 3b, and 3e were 183±77, 38±20, and 41±14, respectively, after 24 hr.
# ^a The dose of 14 mg/day by gavage is equivalent to a feeding dose of 2
# [4] = test system: NADPH-requiring enzymes in rat liver microsomes; assay: Conversion of retinyl ethers to retinol by rat liver microsomal enzymes; type: in vitro ADME; conditions: in vitro
# Description: Because it was postulated, as stated above, that new retinyl ethers might not be converted by mircrosomal oxidases to retinol, RTMBE and 3a-i were tested in vitro in the same way.
# [5] = test system: TPA-induced ornithine decarboxylase (ODC); assay: Inhibition of TPA-induced ornithine decarboxylase (ODC) in mouse skin; type: in vivo
# Source text: Earlier, several alkyl, alkenyl, or alkynyl retinyl ethers had been assayed for inhibition of TPA-induced ornithine decarboxylase (ODC) in mouse skin and for the suppression of DMBA-initiated and TPA-promoted mouse-skin papillomas (Shealy et al., 1997). In comparison with control groups, these retinyl ethers were ineffective. Only a few representatives of the benzyl ethers were selected for tests in these assays. […] Because of these and the earlier results (Shealy et al., 1997), testing of retinyl benzyl ethers in the ODC and papilloma assays was discontinued.
# [6] = Stability of retinyl ethers in storage and in solution; type: physicochemical
# [7] = Mammary tissue-to-plasma concentration after intravenous dosing; type: in vivo, rat (female Sprague-Dawley); conditions: rat, 5 mg/kg i.v., after 24 hr, read-out: ratio of mammary tissue-to-plasma concentrations
# [8] = Shealy et al., 1997; cited from earlier work
# [9] = Analysis of feed samples for stability of retinyl ethers; type: physicochemical
# Description: (§2) The 2,5-dimethoxybenzyl (3b) and 4-methoxybenzyl (3e) ethers were tested in the same way in a 90-day study. […] The 2,5-dimethybenzyl (3c) and the 2,3-dimethoxybenzyl (3h) ethers, together with RTMBE for comparison, were likewise assayed according to the same methodology. Prior to the beginning of this study, specimens of the retinoid-diet mixtures were placed under the conditions that were employed during the storage and feeding of RTMBE, 3c, and 3h. The specimens were extracted with butanol, and the extracts were analyzed by HPLC. […] Testing of 3c and 3h was discontinued, but the RTMBE study was continued until the duration of the study was 180 days (Table 6). The results were similar to those of Experiment 1 (Table 3). The averages of the number of tumors per rat were reduced by 32-35%; in addition, the averages of the tumor weights per rat was 56-70% lower than the average tumor burden of the control group.
# ^a The values in each column are % recoveries of the retinyl ether from
# mixtures of the ether with feed samples and are based on the actual
# amounts of the ether that were added.
# ^b The samples that were analyzed were mixtures of vehicle, retinoid,
# and feed (prepared as described by Shealy et al., 1997).
# ^c Food cups were placed in animal cages within the room that housed
# the rats; therefore, temperature (22° C.) and lighting were
# identical to those in use during the in vivo tests.
# [10] = test system: MNU-induced mammary cancer; assay: 180-day study of RTMBE for suppression of MNU-induced mammary carcinogenesis (Expt. 3); type: in vivo, rat (female Sprague-Dawley); conditions: second, confirmatory experiment; 2 mmol/kg of diet, 180 days
# [11] = test system: MNU-induced mammary cancer; assay: Short-term (90-day) assay against MNU-induced mammary cancer in rats (Expts. 2 and 3); type: in vivo, rat (female Sprague-Dawley); conditions: 90 days
# Description: as §1, §2
# and was continued until the studies of 3b, 3c, 3e, and 3h were terminated
# 90 days after administration of MNU. The RTMBE experiment was continued
# until 180 days after MNU administration (Table VI).
# kilogram of Teklad diet.
# [12] = mammary gland, read-out: RTMBE, Mammary Gland
# [13] = 7 days, 25.5±1.5° C., protected
smiles,measurement,setting,value
"COc1cc(COC/C=C(C)/C=C/C=C(C)/C=C/C2=C(C)CCCC2(C)C)cc(OC)c1OC [Compound 2, Retinyl 3,4,5-Trimethoxybenzyl Ether]","inhibition of [3H] retinol-binding (RBP), relative to that of retinol",[1],70%
same,toxicity in MNU-mammary cancer studies,[2],Overt toxicity was not evident; also recorded: not toxic in the mammary carcinogenesis studies
same,liver levels of RP compared with vehicle group,"[3]; after 14 days, gavage",only slightly higher than the levels of the vehicle group
same,change of serum concentration of RTMBE,"[3]; between 7 and 14 days, gavage",did not change significantly
same,increase of concentration in mammary gland,"[3]; between 7 and 14 days, gavage",more than two-fold
same,increase of liver level of RTMBE,"[3]; between 7 and 14 days, gavage",22%
same,concentration at 168 h,"[3]; liver, read-out: RTMBE, Liver",78900 ± 7500 ng/g
same,concentration at 336 h,"[3]; liver, read-out: RTMBE, Liver",96100 ± 11100 ng/g
same,concentration at 168 h,[3]; [12],83300 ± 7300 ng/g
same,concentration at 336 h,[3]; [12],178000 ± 11100 ng/g
same,concentration at 168 h,"[3]; serum, read-out: RTMBE, Serum",16300 ± 2500 ng/mL
same,concentration at 336 h,"[3]; serum, read-out: RTMBE, Serum",17300 ± 2200 ng/mL
same,conversion to retinol,[4],not detectable
same,activity in ODC assay,[5],not active in the ODC assay
same,stability on storage,"[6]; 5 years at -20° C., inert atmosphere",unchanged
same,stability in DMSO,[6]; [13],changed very little
same,stability in absolute ethanol,[6]; [13],practically unchanged
same,remaining at 43830 h,"[6]; inert atmosphere storage, 5 years at -20° C., inert atmosphere, read-out: HPLC on re-analysis after storage",99.2%
same,Kp at 24 h,[7],183 ± 77
same,recovery from the feed of rats,[8],recoverable from the feed of rats
same,% recovery of retinyl ether from feed,"[9]; After 1 week of 4° C., 10080 min",101%
same,% recovery of retinyl ether from feed,[9]; After 1 day in food cup (22° C.),97%
same,% recovery of retinyl ether from feed,[9]; After 2 days in food cup (22° C.),104%
same,% recovery of retinyl ether from feed,[9]; After 3 days in food cup (22° C.),97.5%
same,% recovery of retinyl ether from feed,[9]; Immediately After Mixing,99.8%
same,% recovery of retinyl ether,[9]; Vehicle + Retinoid (only),97%
same,stability in diet mixtures,[9]; conditions of storage and feeding in animal rooms,essentially unchanged
same,"reduction of adenocarcinoma formation, compared with retinyl acetate",[10],somewhat more effectively than retinyl acetate
same,reduction of the number of tumors per rat,[11]; at 1 mmol/kg,64%
same,"Tumors, % of Control Gp.","[11]; Expt. 3, 0.5 mmol/kg diet",78%
same,"Tumors, Avg. No. per Rat","[11]; Expt. 3, 0.5 mmol/kg diet",1.5
same,"Tumors, % of Control Gp.","[11]; Expt. 3, 1 mmol/kg diet",36%
same,"Tumors, Avg. No. per Rat","[11]; Expt. 3, 1 mmol/kg diet",0.7
same,"Tumors, % of Control Gp.","[11]; Expt. 3, 2 mmol/kg diet",36%
same,"Tumors, Avg. No. per Rat","[11]; Expt. 3, 2 mmol/kg diet",0.7
